Key:
[1] = test system: ER+ early stage breast cancer; assay: Distant relapse risk after adjuvant systemic therapy, multicentre adjuvant therapy cohort stratified by SPAG5 mRNA; assay type: in vivo, human
Description: A) Breast Cancer—Assessment Death and Distant Relapse Risks after Surgery and Receiving Adjuvant Systemic Therapy if Eligible in Early Stage Breast Cancer (i.e. Examples 26 to 37, 45, 49, 50, 53, 54 and 57)
The inventors evaluated the prognostic utility of SPAG5-mRNA expression in a large combined breast cancer (BC) cohort which was sourced from 15 publically-available, global datasets (n=3538) using the following access numbers.
All the databases had been downloaded and processed. The gene expression data were converted to a common scale (median equal to 0 and standard deviation equal to 1) in order to merge all of the studies data and create combined cohorts. Each sample in the data was standardised to a mean of 0 and standard deviation of 1. Then the data was median centred for each gene whereby median of each gene is 0.
SPAG5 gene expression data of each database were converted to a common scale (median equal to 0 and standard deviation equal to 1) in order to merge all of the studies data that used the same platform and create combined cohorts. To convert to a common scale each sample in the data was standardised to a mean of 0 and standard deviation of 1. Then the data was median centred for each gene whereby median of each gene is 0. Databases using same platform have been merged and the median expression was calculated. The median expression of SPAG5 transcript for each platform has been calculated and values equal to or higher than the median coded as +1 (overexpression). Values of less than the median have been coded 0 or low SPAG5.

[2] = test system: SPAG5 mRNA; assay: SPAG5 mRNA expression change and clinical response during preoperative endocrine therapy (letrozole); assay type: in vivo, human
Description: B) Breast Cancer—Assessment of the Clinical Dynamic Response after Receiving Preoperative Endocrine Therapy (Aromatase Inhibitor) (i.e. Example 38)
The association between SPAG5 mRNA expression and clinical response after receiving preoperative therapy has been analysed in a total of 101 patients from a consecutive series of 255 postmenopausal women who presented to Western General Hospital in Edinburgh with large primary histologically confirmed estrogen receptor (ER)-rich (Allred scores 6 to 8) invasive breast cancer and who were recruited between 2003 and 2011 fulfilled the requirements to be included in this. All patients gave informed consent and the study was approved by the local regional ethics committee (2001/8/80 and 2001/8/81). Patients were treated with letrozole (Femara, 2.5 mg; Novartis Pharma AG, Basel, Switzerland) daily for at least 3 months. The clinical response was assessed by three-dimensional ultrasound measurements using dynamic (serial) changes in tumor volumes. Tumours with <50% reduction in volume were classified as non-responders. SPAG5 mRNA expression data were retrieved from the publically available gene expression microarray datasets at the National Center for Biotechnology Information Gene Expression Omnibus under access numbers (GSE59515, GSE55374, and GSE20181).
For “GSE59515” and “GSE55374” cases, RNA was extracted, labelled, and hybridized to HumanHT-12 v4 Illumina BeadChips (GPL10558) according to the standard protocol for NuGEN amplified samples. For GSE20181 cases, samples were processed on Affymetrix U133A gene chip (GPL96). There were no significant differences in clinical or pathologic features of patients or tumours from the three datasets. Illumina and Affymetrix data were independently normalized (quantile using the lumi Bioconductor package2l and the log scale robust multi-array analysis expression measure was implemented with the affy packages) and mapped to Ensembl gene identifiers using re-annotation and mapping for oligonucleotide array technologies and custom chip definition file, respectively, before detection filtering and batch correction with cross-platform normalization. Biopsies were taken from the same subjects at three time-points: pre-treatment, after 10-14 days Letrozol (2.5 mg/day, oral), and after 90 days Letrozol (2.5 mg/day, oral).

Compound	distant relapse risk ([1]; ER+ LN+ early stage BC, SPAG5+ mRNA overexpression)	distant relapse risk ([1]; ER+ LN+ early stage BC, low SPAG5 mRNA)	distant relapse risk ([1]; ER+ LN- early stage BC, SPAG5+ mRNA overexpression)	distant relapse risk ([1]; ER+ LN- early stage BC, low SPAG5 mRNA)	cases with SPAG5 mRNA significantly downregulated vs pre-treatment biopsy ([2]; ER+ tumours, after 2 weeks)	change of SPAG5 mRNA expression vs biopsy after 2 weeks ([2]; ER+ tumours, after 12 weeks)	change of SPAG5 mRNA expression vs pre-treatment biopsy ([2]; non-responding tumours, after 2 or 12 weeks)	responding tumours with significant down-regulation of SPAG5 mRNA ([2]; tumour volume reduced by 50%, after 2 weeks)
CC/C(=C(\c1ccccc1)c1ccc(OCCN(C)C)cc1)c1ccccc1 [Tamoxifen]	46%	22%	33%	13%	–	–	–	–
N#Cc1ccc(C(c2ccc(C#N)cc2)n2cncn2)cc1 [pre-operative endocrine therapy, letrozole]	–	–	–	–	72%	significant further reduction	no significant change	76%
